For 32 molecules, IC50 results are on record in ChEMBL document CHEMBL3352110, “Design, synthesis and in vitro evaluation of novel dehydroabietic acid derivatives containing a dipeptide moiety as potential anticancer agents” (Eur J Med Chem, 2015).

Bounds are passed on as bounds.

Type in all cases: functional, cell-based
One experiment deals with HeLa. As to the kind of experiment: Cytotoxicity against human HeLa cells after 48 hrs by MTT assay.
In a further experiment the test system is MGC-803. As to the kind of experiment: Cytotoxicity against human MGC803 cells after 48 hrs by MTT assay. To be noted: MGC-803, 48 h. (In general: Formazan colour is commonly taken as a measure of viable cells.)
A further experiment concerns NCI-H460. As to the kind of experiment: Cytotoxicity against human NCI-H460 cells after 48 hrs by MTT assay. The note with it: NCI-H460, 48 h.
The nature of experiment [1]: Cytotoxicity against human HL7702 cells after 48 hrs by MTT assay. The note with it: L02, 48 h.

Consider `CC(C)c1ccc2c(c1)/C(=N\O)C[C@H]1[C@](C)(C(=O)N[C@H](Cc3ccccc3)C(=O)Nc3ccc(F)cc3)CCC[C@]21C`, for which the IC50 came out at 20.6 µM with HeLa, 17.3 µM in the experiment on MGC-803, 58.6 µM in the experiment with NCI-H460 and 53.8 µM in experiment [1].
The corresponding values for `COc1cc(NC(=O)[C@H](Cc2ccccc2)NC(=O)[C@]2(C)CCC[C@]3(C)c4ccc(C(C)C)cc4/C(=N\O)C[C@@H]23)cc(OC)c1OC` are 25.9 µM, 17.5 µM, 36.6 µM and 49.6 µM.
In the same order, the values of `COc1ccccc1NC(=O)[C@H](Cc1ccccc1)NC(=O)[C@]1(C)CCC[C@]2(C)c3ccc(C(C)C)cc3C(=O)C[C@@H]12` are 14.7 µM, 39.4 µM, 33.8 µM and 57.5 µM.
The corresponding values for `CC(C)c1ccc2c(c1)C(=O)C[C@H]1[C@](C)(C(=O)N[C@@H](Cc3ccccc3)C(=O)Nc3ccccc3F)CCC[C@]21C` are 18.9 µM, 18.9 µM, 57.1 µM and 47.6 µM.
On to `COc1ccc(NC(=O)[C@H](Cc2ccccc2)NC(=O)[C@]2(C)CCC[C@]3(C)c4ccc(C(C)C)cc4/C(=N\O)C[C@@H]23)cc1`, for which the 50% inhibitory concentration (IC50) with HeLa is 10.9 µM; in the experiment on MGC-803, 14.6 µM; in the experiment with NCI-H460, 32 µM; in experiment [1] it was 49.6 µM.
In the same order, the values of `CC(C)c1ccc2c(c1)C(=O)C[C@H]1[C@](C)(C(=O)N[C@@H](Cc3ccccc3)C(=O)Nc3ccc(Cl)cc3)CCC[C@]21C` are 36 µM, 29 µM, 49.1 µM and 57.8 µM.
`CC(C)c1ccc2c(c1)C(=O)C[C@H]1[C@](C)(C(=O)N[C@@H](Cc3ccccc3)C(=O)Nc3ccccc3)CCC[C@]21C`: the IC50 with HeLa came out at 29.1 µM; with MGC-803 it was 27.6 µM; with NCI-H460, 29 µM; in experiment [1], 51.6 µM.
As to `CC(C)c1ccc2c(c1)C(=O)C[C@H]1[C@](C)(C(=O)N[C@H](Cc3ccccc3)C(=O)Nc3ccccc3Cl)CCC[C@]21C`, the IC50 was over 100 µM in the experiment with HeLa, 29.7 µM in the experiment with MGC-803, 50 µM in the experiment on NCI-H460 and 46.5 µM in experiment [1].
In the same order, the values of `CC(C)c1ccc2c(c1)C(=O)C[C@H]1[C@](C)(C(=O)N[C@H](Cc3ccccc3)C(=O)Nc3ccc(Cl)cc3)CCC[C@]21C` are 32.3 µM, 20.2 µM, 23.4 µM and 76.3 µM.
For the molecule `O=c1[nH]cc(F)c(=O)[nH]1` [FLUOROURACIL], the half-inhibitory concentration (IC50) with HeLa came to 36.5 µM; in the experiment on MGC-803, 30.4 µM.
With `CC(C)c1ccc2c(c1)/C(=N\O)C[C@H]1[C@](C)(C(=O)N[C@@H](Cc3ccccc3)C(=O)Nc3ccc(Cl)cc3)CCC[C@]21C`, the 50% inhibitory concentration (IC50) in the experiment with HeLa came out at 101 µM; with MGC-803, 25.8 µM; with NCI-H460 it was 102 µM; in experiment [1], 60.8 µM.
As to `COc1ccc(NC(=O)[C@H](Cc2ccccc2)NC(=O)[C@]2(C)CCC[C@]3(C)c4ccc(C(C)C)cc4C(=O)C[C@@H]23)cc1`, the IC50 in the experiment with HeLa is 52.3 µM; in the experiment with MGC-803 it was 49 µM; in the experiment with NCI-H460, over 100 µM; in experiment [1] it was 59.6 µM.
The corresponding values for `CC(C)c1ccc2c(c1)/C(=N\O)C[C@H]1[C@](C)(C(=O)N[C@H](Cc3ccccc3)C(=O)Nc3ccc(Cl)cc3)CCC[C@]21C` are 20.2 µM, 17.8 µM, 17.6 µM and 57.9 µM.
The corresponding values for `COc1ccccc1NC(=O)[C@@H](Cc1ccccc1)NC(=O)[C@]1(C)CCC[C@]2(C)c3ccc(C(C)C)cc3C(=O)C[C@@H]12` are 40.7 µM, 30.9 µM, 85.4 µM and 55.7 µM.
The corresponding values for `CC(C)c1ccc2c(c1)C(=O)C[C@H]1[C@](C)(C(=O)N[C@H](Cc3ccccc3)C(=O)Nc3ccccc3F)CCC[C@]21C` are 25.9 µM, 18.9 µM, 61.4 µM and 53.3 µM.
On to `CC(C)c1ccc2c(c1)/C(=N\O)C[C@H]1[C@](C)(C(=O)N[C@@H](Cc3ccccc3)C(=O)Nc3ccccc3Cl)CCC[C@]21C`, for which the IC50 in the experiment on HeLa worked out at 22.8 µM; in the experiment on MGC-803, 22.4 µM; with NCI-H460 it was 36.5 µM; in experiment [1], 45.9 µM.
The corresponding values for `COc1ccccc1NC(=O)[C@H](Cc1ccccc1)NC(=O)[C@]1(C)CCC[C@]2(C)c3ccc(C(C)C)cc3/C(=N\O)C[C@@H]12` are 19.3 µM, 11.9 µM, 31 µM and 58.8 µM.
In the same order, the values of `CC(C)c1ccc2c(c1)/C(=N\O)C[C@H]1[C@](C)(C(=O)N[C@@H](Cc3ccccc3)C(=O)Nc3ccccc3F)CCC[C@]21C` are 34.1 µM, 17.8 µM, 44.8 µM and 57.5 µM.
In the same order, the values of `CC(C)c1ccc2c(c1)/C(=N\O)C[C@H]1[C@](C)(C(=O)N[C@@H](Cc3ccccc3)C(=O)Nc3ccc(F)cc3)CCC[C@]21C` are 20.7 µM, 24.4 µM, 23.4 µM and 49.7 µM.
For `CC(C)c1ccc2c(c1)C(=O)C[C@H]1[C@](C)(C(=O)N[C@@H](Cc3ccccc3)C(=O)Nc3ccc(F)cc3)CCC[C@]21C`, the half-maximal inhibitory concentration (IC50) came out at 63.5 µM with HeLa, 20.1 µM with MGC-803, 61.6 µM in the experiment on NCI-H460 and 66.5 µM in experiment [1].
In the same order, the values of `COc1ccc(NC(=O)[C@@H](Cc2ccccc2)NC(=O)[C@]2(C)CCC[C@]3(C)c4ccc(C(C)C)cc4C(=O)C[C@@H]23)cc1` are 16.3 µM, 39.6 µM, 34.3 µM and 55.4 µM.
Regarding `CC(C)c1ccc2c(c1)CC[C@H]1[C@](C)(C(=O)O)CCC[C@]21C` [DEHYDROABIETIC ACID], in the experiment on MGC-803, the IC50 is over 100 µM.
As for `COc1cc(NC(=O)[C@H](Cc2ccccc2)NC(=O)[C@]2(C)CCC[C@]3(C)c4ccc(C(C)C)cc4C(=O)C[C@@H]23)cc(OC)c1OC`, the IC50 amounted to 49.6 µM with HeLa, 21.3 µM with MGC-803, 54.6 µM with NCI-H460 and 69.5 µM in experiment [1].
With `COc1cc(NC(=O)[C@@H](Cc2ccccc2)NC(=O)[C@]2(C)CCC[C@]3(C)c4ccc(C(C)C)cc4C(=O)C[C@@H]23)cc(OC)c1OC`, the 50% inhibitory concentration (IC50) worked out at 19.2 µM in the experiment with HeLa, 26.4 µM in the experiment with MGC-803, 27.9 µM in the experiment with NCI-H460 and 57.4 µM in experiment [1].
In the same order, the values of `COc1ccc(NC(=O)[C@@H](Cc2ccccc2)NC(=O)[C@]2(C)CCC[C@]3(C)c4ccc(C(C)C)cc4/C(=N\O)C[C@@H]23)cc1` are 17.3 µM, 15 µM, 20.4 µM and 56.2 µM.
Consider `CC(C)c1ccc2c(c1)/C(=N\O)C[C@H]1[C@](C)(C(=O)N[C@@H](Cc3ccccc3)C(=O)Nc3ccccc3)CCC[C@]21C`, for which the IC50 with HeLa turned out to be 16 µM; in the experiment on MGC-803, 16 µM; in the experiment with NCI-H460 it was 41.3 µM; in experiment [1], 45.9 µM.
Turning to `COc1cc(NC(=O)[C@@H](Cc2ccccc2)NC(=O)[C@]2(C)CCC[C@]3(C)c4ccc(C(C)C)cc4/C(=N\O)C[C@@H]23)cc(OC)c1OC`, the IC50 with HeLa is 32 µM; in the experiment with MGC-803, 15.6 µM; with NCI-H460, 36.1 µM; in experiment [1], 56.2 µM.
In the same order, the values of `CC(C)c1ccc2c(c1)C(=O)C[C@H]1[C@](C)(C(=O)N[C@H](Cc3ccccc3)C(=O)Nc3ccc(F)cc3)CCC[C@]21C` are 16.3 µM, 39.6 µM, 34.3 µM and 52.4 µM.
In the same order, the values of `CC(C)c1ccc2c(c1)/C(=N\O)C[C@H]1[C@](C)(C(=O)N[C@H](Cc3ccccc3)C(=O)Nc3ccccc3F)CCC[C@]21C` are 20.8 µM, 13.4 µM, 42.5 µM and 54.8 µM.
In the same order, the values of `COc1ccccc1NC(=O)[C@@H](Cc1ccccc1)NC(=O)[C@]1(C)CCC[C@]2(C)c3ccc(C(C)C)cc3/C(=N\O)C[C@@H]12` are 18.4 µM, 18.7 µM, 37.1 µM and 57.9 µM.
On to `CC(C)c1ccc2c(c1)C(=O)C[C@H]1[C@](C)(C(=O)N[C@H](Cc3ccccc3)C(=O)Nc3ccccc3)CCC[C@]21C`, for which the IC50 stood at 57.8 µM in the experiment with HeLa, 30.5 µM in the experiment with MGC-803, 51.9 µM in the experiment on NCI-H460 and 53.3 µM in experiment [1].
Consider `CC(C)c1ccc2c(c1)/C(=N\O)C[C@H]1[C@](C)(C(=O)N[C@H](Cc3ccccc3)C(=O)Nc3ccccc3Cl)CCC[C@]21C`, for which the IC50 in the experiment on HeLa was determined as 26.6 µM; in the experiment on MGC-803, 17 µM; in the experiment with NCI-H460, 26.9 µM; in experiment [1], 48.2 µM.

The term IC50 denotes the midpoint of a concentration-inhibition curve. Read a high IC50 as weaker potency in that assay.
